According to patent publication US5994334A, “Androgen synthesis inhibitors” (priority 1997, dated 1999):

How the values were obtained:
[1] = biological target: T1, human 17α-hydroxylase/C17,20-lyase (Homo sapiens, UniProt P05093); test: Inhibition of human testicular 17α-hydroxylase/C17,20-lyase (enzyme complex as a whole); format: biochemical; conditions: NI = no inhibition
T1 construct: incubating human testicular microsomes; from tissue; host or cells: human testis, microsomes
T1 sequence (P05093 1-508): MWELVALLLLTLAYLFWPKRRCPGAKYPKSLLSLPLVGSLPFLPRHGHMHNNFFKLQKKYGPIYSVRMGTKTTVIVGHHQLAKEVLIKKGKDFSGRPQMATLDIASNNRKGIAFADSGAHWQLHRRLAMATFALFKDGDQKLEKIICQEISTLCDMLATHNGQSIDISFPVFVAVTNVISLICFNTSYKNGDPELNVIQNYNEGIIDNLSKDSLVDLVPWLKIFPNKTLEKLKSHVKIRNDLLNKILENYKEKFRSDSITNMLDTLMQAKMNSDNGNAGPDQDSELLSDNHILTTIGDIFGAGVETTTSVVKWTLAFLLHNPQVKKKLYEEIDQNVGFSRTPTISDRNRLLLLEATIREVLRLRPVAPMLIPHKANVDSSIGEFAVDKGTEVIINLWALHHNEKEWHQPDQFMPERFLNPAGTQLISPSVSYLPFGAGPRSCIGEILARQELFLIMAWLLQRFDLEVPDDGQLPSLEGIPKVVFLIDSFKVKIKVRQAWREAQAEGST
Procedure, shortened: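 Radiolabeled pregnenolone, human testicular microsomes, test compound at varied concentrations; reverse-phase HPLC of substrate and metabolites. 17α-OHase = pregnenolone → 17α-OH-pregnenolone + DHEA; lyase = pregnenolone → DHEA.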

[2] = biological target: human androgen receptor (AR) (Homo sapiens, UniProt P10275); test: Androgen receptor-mediated gene transcription, wild-type AR (luciferase, CV1 cells); format: cell-based; conditions: against DHT stimulation
[3] = test system: mutant AR which is expressed in LNCaP cells; test: Androgen receptor-mediated gene transcription, mutant AR of LNCaP cells (luciferase, CV1 cells); format: cell-based, human
normal male rats = test: In vivo studies in normal male rats: hormone levels; parameters: species or system rat; conditions: rat
Excerpt: (§1) Studies in normal male rats have been carried out with 4-pregnen-3-one-20β-carboxaldehyde (I-16) (Li et al., 1992) and with its 20-carboxaldoxime (I-23)(Li et al., 1995).

[4] = test system: LNCaP human prostatic tumors; test: Human prostatic cancer (LNCaP) xenograft in male nude mice; format: in vivo, human (LNCaP) tumors in BALB/c male athymic mice; conditions: 1 mg/mouse/day s.c.
Method: We have reported that inoculation of MCF-7 breast cancer cells in Matrigel increases mammary tumor formation in nude mice (Yue et al., 1994). The same procedure was therefore utilized to develop tumors from human prostatic cancer cells (LNCAP) in male nude mice. BALB/c male athymic mice, 4-6 weeks old, were inoculated sc with LNCaP cells suspended in Matrigel (10 mg/ml). Four sites per mouse were injected with 1.8×10^6 cells in 0.1 ml Matrigel. Treatment began when the tumor reached about 100 mm^3 in volume. Tumors were measured before the treatment began and once a week during treatment. Tumor volume was calculated by the formula 4/3πr1^2 r2 (r1 <r2).At the end of treatment, the mice were sacrificed and individual tumors were weighed. The latency of tumor development was 30-40 days and overall tumorigenicity was 82%.
In a further experiment, two mice were treated with I-16 (1 mg/mouse/day, s.c.) beginning 45 days after cell inoculation. Two mice received vehicle as controls. […] The mean tumor weight was 198.78±72 mg in I-16 treated mice compared to 386.3±147.2 mg in the control group. In other experiments, I-47 and I-49 were effective in controlling tumor growth. The total tumor volume of the control mice increased to 884.0% of the initial volume.

[5] = test system: rat 17α-hydroxylase/C17,20-lyase; test: Inhibition of rat 17α-hydroxylase/C17,20-lyase; format: biochemical
Excerpt: as §1

[6] = biological target: T2, Human Prostatic 5α-Reductase (Homo sapiens, UniProt P31213); test: Inhibition of human prostatic 5α-reductase (prostatic microsomes, [3H]testosterone)
T2 sequence (P31213 1-254): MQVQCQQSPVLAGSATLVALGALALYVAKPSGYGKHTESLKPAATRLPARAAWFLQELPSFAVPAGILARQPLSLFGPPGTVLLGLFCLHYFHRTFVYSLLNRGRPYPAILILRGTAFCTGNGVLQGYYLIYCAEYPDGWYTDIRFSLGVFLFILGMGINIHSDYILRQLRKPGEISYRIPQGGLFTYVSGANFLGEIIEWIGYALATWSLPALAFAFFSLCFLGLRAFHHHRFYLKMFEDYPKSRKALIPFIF
Method: The 5α-reductase assay is performed by incubating human prostatic microsomes (approx. 0.6 mg protein in 0.5 ml phosphate buffer) with [7-^3 H]testosterone (10 mM. 6×10^5 dpm) with a NADPH generating system (NADP 0.65 mM; glucose-6-phosphate 7.1 mM; glucose-6-phosphate dehydrogenase 2.5 IU in 100 μl phosphate buffer) and candidate inhibitors at concentrations of 10 nM and 100 nM under oxygen for 30 min at 37° C. […] The steroids are extracted with ether and separated by chromatography on TLC (chloroform:ether 80:20). […] The steroids are scraped from the plate and radioactivity measured.

[7] = substrate: CC(=O)[C@H]1CC[C@H]2[C@@H]3CCC4=CC(=O)CC[C@]4(C)[C@H]3CC[C@]12C; test: Inhibition kinetics of rat 17α-hydroxylase, progesterone substrate; format: biochemical; conditions: other: substrate
[8] = substrate: CC(=O)[C@@]1(O)CC[C@H]2[C@@H]3CCC4=CC(=O)CC[C@]4(C)[C@H]3CC[C@@]21C; test: Inhibition kinetics of rat C17,20-lyase, 17α-hydroxyprogesterone substrate; format: biochemical; conditions: other: substrate

Chain of human androgen receptor (AR) (P10275 whole entry): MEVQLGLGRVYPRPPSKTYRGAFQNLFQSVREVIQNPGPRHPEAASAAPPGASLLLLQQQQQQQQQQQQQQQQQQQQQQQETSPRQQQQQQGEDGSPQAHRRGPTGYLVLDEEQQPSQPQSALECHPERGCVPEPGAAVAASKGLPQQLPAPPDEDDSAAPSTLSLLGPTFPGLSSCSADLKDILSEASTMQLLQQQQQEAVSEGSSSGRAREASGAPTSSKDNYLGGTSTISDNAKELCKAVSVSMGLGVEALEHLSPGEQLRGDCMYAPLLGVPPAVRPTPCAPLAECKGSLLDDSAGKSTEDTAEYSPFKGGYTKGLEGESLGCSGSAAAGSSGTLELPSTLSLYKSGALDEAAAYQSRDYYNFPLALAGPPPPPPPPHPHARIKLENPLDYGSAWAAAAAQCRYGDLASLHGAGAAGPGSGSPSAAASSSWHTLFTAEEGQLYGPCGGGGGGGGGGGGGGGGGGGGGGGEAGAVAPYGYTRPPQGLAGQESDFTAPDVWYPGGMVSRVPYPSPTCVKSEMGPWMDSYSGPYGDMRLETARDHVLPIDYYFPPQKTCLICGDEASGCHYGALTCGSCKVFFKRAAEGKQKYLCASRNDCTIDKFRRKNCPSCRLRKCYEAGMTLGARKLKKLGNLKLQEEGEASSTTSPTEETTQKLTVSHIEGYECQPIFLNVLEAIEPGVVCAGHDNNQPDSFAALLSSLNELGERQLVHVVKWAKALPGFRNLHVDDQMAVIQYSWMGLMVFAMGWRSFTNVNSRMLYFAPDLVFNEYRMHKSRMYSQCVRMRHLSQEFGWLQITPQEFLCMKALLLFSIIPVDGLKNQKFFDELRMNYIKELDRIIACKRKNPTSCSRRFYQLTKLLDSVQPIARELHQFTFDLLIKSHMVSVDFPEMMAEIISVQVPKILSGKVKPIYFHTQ

`C[C@H](C=O)[C@H]1CC[C@H]2[C@@H]3CCC4=CC(=O)CC[C@]4(C)[C@H]3CC[C@]12C` [Compound I-16, 4-pregnen-3-one-20β-carboxaldehyde] was tested, and the “inhibition of 17α-hydroxylase/C17,20-lyase (in words)” value [1] was “significant inhibition”, the “antagonism of wild-type AR (in words)” value [2] was “dose-dependent antagonism” and the “agonism/antagonism at mutant AR of LNCaP cells (in words)” value [3] was “agonists”. For the same molecule, the “reduction of testosterone and DHT levels in serum, testicular and prostatic tissues (in words)” value (normal male rats) was “significantly reducing testosterone and DHT levels”, the “total tumor volume (% of initial volume), 3 weeks” value ([4]; 3 weeks, two mice, control 281%) was 173.6% and the “mean tumor weight, 3-week experiment” value ([4]; control 386.3±147.2 mg) was 198.78 ± 72 mg. The “inhibition of rat 17α-hydroxylase/C17,20-lyase (in words)” value [5] was “inhibit rat 17α-hydroxylase/C17,20 -lyase”, the inhibition at 0.01 µM ([6]; read-out: % Inhibition of 5α-reductase, [I] 10 nM) was 20.5% and the inhibition at 0.1 µM ([6]; read-out: % Inhibition of 5α-reductase, [I] 100 nM) was 87.2%.

B1: rat 17α-hydroxylase (Rattus norvegicus) (protein)
chain: MWELVGLLLLILAYFFWVKSKTPGAKLPRSLPSLPLVGSLPFLPRRGHMHVNFFKLQEKYGPIYSLRLGTTTTVIIGHYQLAREVLIKKGKEFSGRPQMVTQSLLSDQGKGVAFADAGSSWHLHRKLVFSTFSLFKDGQKLEKLICQEAKSLCDMMLAHDKESIDLSTPIFMSVTNIICAICFNISYEKNDPKLTAIKTFTEGIVDATGDRNLVDIFPWLTIFPNKGLEVIKGYAKVRNEVLTGIFEKCREKFDSQSISSLTDILIQAKMNSDNNNSCEGRDPDVFSDRHILATVGDIFGAGIETTTTVLKWILAFLVHNPEVKKKIQKEIDQYVGFSRTPTFNDRSHLLMLEATIREVLRIRPVAPMLIPHKANVDSSIGEFTVPKDTHVVVNLWALHHDENEWDQPDQFMPERFLDPTGSHLITPTQSYLPFGAGPRSCIGEALARQELFVFTALLLQRFDLDVSDDKQLPRLEGDPKVVFLIDPFKVKITVRQAWMDAQAEVST
In the case of B1, the Km [7] is reported as 0.029 µM.

B2: rat C17,20-lyase (Rattus norvegicus) (protein)
chain: MWELVGLLLLILAYFFWVKSKTPGAKLPRSLPSLPLVGSLPFLPRRGHMHVNFFKLQEKYGPIYSLRLGTTTTVIIGHYQLAREVLIKKGKEFSGRPQMVTQSLLSDQGKGVAFADAGSSWHLHRKLVFSTFSLFKDGQKLEKLICQEAKSLCDMMLAHDKESIDLSTPIFMSVTNIICAICFNISYEKNDPKLTAIKTFTEGIVDATGDRNLVDIFPWLTIFPNKGLEVIKGYAKVRNEVLTGIFEKCREKFDSQSISSLTDILIQAKMNSDNNNSCEGRDPDVFSDRHILATVGDIFGAGIETTTTVLKWILAFLVHNPEVKKKIQKEIDQYVGFSRTPTFNDRSHLLMLEATIREVLRIRPVAPMLIPHKANVDSSIGEFTVPKDTHVVVNLWALHHDENEWDQPDQFMPERFLDPTGSHLITPTQSYLPFGAGPRSCIGEALARQELFVFTALLLQRFDLDVSDDKQLPRLEGDPKVVFLIDPFKVKITVRQAWMDAQAEVST
B2 was tested, and the Km [8] was 0.076 µM.
